Assay results reported in paper PMC9256669, “Monomethyl auristatin antibody and peptide drug conjugates for trimodal cancer chemo-radio-immunotherapy” (Nature Communications, 2022).
Where “and” joins values, the source holds several entries; their conditions need not be identical. Equal entries are not always repeated. Where two headings read alike, the source gives them in different places. Non-standard residues stand in square brackets, D forms with d. Residues, ends and D or L forms follow the SMILES beside them. *: point of attachment. Dolaproine = CO[C@@H]([C@@H]1CCCN1)[C@@H](C)C(=O)O; Dil = CC[C@H](C)[C@H](NC)[C@@H](CC(=O)O)OC; X1 = C[C@@H](N*)[C@@H](O)c1ccccc1; NMeV = CN[C@H](C(=O)O)C(C)C

Key:
A549 = assay: Cytotoxicity, Alamar Blue assay; format: cell-based, human; conditions: 72 h drug exposure, one value per biological replicate
Method: (§1) Cells were plated in 96-well plates and exposed to a drug concentration range for 72 h. Alamar Blue was added to the cells and allowed to incubate for 2–4 h at 37 °C. Plates were analyzed using a plate reader with fluorescence measured at 560 nm. Fractional survival was normalized to untreated control cell fluorescent values. Drug IC50 was calculated using Prism software (GraphPad, La Jolla, CA). Cell viability, cytotoxicity and apoptosis were also measured by ApoTox-Glo Triplex Assay (Promega).

HCT116 = assay: Cytotoxicity, Alamar Blue assay; format: cell-based, human; conditions: 72 h drug exposure, one value per biological replicate
Method: as §1

B16 cells [1] = assay: Cell cycle analysis; format: cell-based, murine; conditions: for G2/M fraction: Figure 3c, single replicates
Method: Cells were MMAE treated for 24 h, fixed in 70% ethanol, stained with FxCyclePI/RNase solution (Life Technologies), and then analyzed by FACS using FlowJo software.

[2] = Tumor drug measurement (MMAE by LC-MS/MS) after ACPP-MMAE; format: in vivo, mouse; conditions: LL/2 and B16 tumors, 10 nmoles ACPP-MMAE i.v.
Method: (§2) For CDX3379-MMAE drug measurements, 6-week-old female NOD SCID (University of California San Diego Animal Care Program) were injected orthotopically into the tongue with 150,000 CAL27 PIK3CA H1047R expressing cells in 20 µl of DMEM. After 10 days, mice were intravenously (i.v.) injected through the tail vein with 2.5 nmole of CDX3379-MMAE in 50 µl of PBS. […] Tumors were excised on days indicated in figure legends, weighed, and homogenized in 10 v/w of 2% acetic acid in 1:1 acetonitrile:water with a point sonicator (Fisher Scientific) using an amplitude range of 5–15% for 20 s on ice. Homogenates were centrifuged ([…], 10 min), supernatants collected for drug concentration measurements using LC–MS/MS. Drug concentration was determined by LC–MS/MS with Luna-2 C18 column and Agilent Trap XCT mass spectrometer. For MMAE tissue concentrations, integrated ion currents for m/z 682.4, 496.4 and m/z 686.4, 506.4 extracted from fragmented m/z 740.4 and 718.4, respectively, were combined. The total ion current was fit to a standard curve generated for each drug to quantitate tissue drug concentration.

B16 tumors [3] = test system: B16 tumors
Text: (§3) LL/2 cells treated with dose range of MMAE overnight and then […] in drug free media for 7-10 days to allow for visualized colonies to form.
(§4) Statistical significances calculated using one-way ANOVA with Tukey’s multiple comparisons test. 0.9 b) Cell cycle analysis […]
(§5) of MMAE treated LL/2 cells, mean ± SD, n=2. […]
(§6) experiments. c) Clonogenic survival of LL/2 cells treated with MMAE and 2 Gy (SF2). Cell Days viability normalized to non-irradiated cells for each drug condition and plotted as mean fractional survival ± SEM, n=6. Statistical significances calculated using one-way ANOVA with Sidak’s multiple comparisons test. d) Tumor volumes (n=10) and mouse body weights (n=5) of mice from experiments in Fig. 3e. Tumor volumes plotted as mean volume of surviving mice ± SEM.
(§7) Mouse body weight were normalized to each mouse’s weight on day 0, i.e. tumor implantation.
(§8) Data plotted as mean fractional body weight ± SEM. e) Mouse body weights of mice (n=5) from experiments in Fig. 4h were normalized to each mouse’s weight on day of tumor implantation.
(§9) Data is plotted as individual normalized body weights. f) Mouse body weights of mice from experiments in Fig. 5e, f were normalized to each mouse’s weight on day of tumor implantation.
(§10) Source data are provided in Source Data file.

LL/2 tumors = conditions: for Mouse survival, status: individual mice, status at the day, Figure 3e
Text: as §3, §4, §5, §6, §7, §8, §9, §10

MC38 tumors = test system: MC38 tumors
Text: as §3, §4, §5, §6, §7, §8, §9, §10

B16 tumors [4] = test system: B16 tumors; set-up: species or system C57BL/6 mice; conditions: mouse, in vivo
Method: At harvest, tumors were isolated, minced, and re-suspended in FBS-free DMEM media supplemented with components of MACs tumor dissociation kit. Tissues were incubated for 15 min at 37 °C and mechanically digested using the gentle MACs Octo dissociator. Tissue suspensions were washed with fresh media and passed through a 100-µm strainer. Samples were split in half for immediate staining or stimulated with the Biolegend Cell Activation Cocktail (with Brefeldin A) for 3 h. Samples were washed with PBS and immediately processed for live/dead cell discrimination using BD LIVE/DEAD™ Fixable Blue Dead Cell Stain Kit. Cells were washed and stained for surface markers for 30 min at 4 °C. Intracellular staining was performed using the eBioscience FOXP3/Transcription Factor Buffer Set from Invitrogen and stained with intracellular antibodies. […] All antibodies were validated by the supplier. All flow cytometry data acquisition was done using BD LSRFortessa and analyzed using FlowJo software. […]
Representative flow cytometry plots to gate immune cells quantitated in Fig. 4a, b, 4d &
Supplementary Fig. 10b, c. b) Quantification of tumor immune cell identified by flow cytometry on […]
(Clone:GB11). In addition, RNA levelsof tumor granzyme-B was analyzed by qPCR. […]

[5] = Tumor drug measurement (MMAE by LC-MS/MS) after CDX3379-MMAE; format: in vivo, mouse; set-up: unit not given here; conditions: orthotopic CAL27 tongue xenografts (methods: CAL27 PIK3CA H1047R cells, NOD SCID), 2.5 nmoles CDX3379-MMAE i.v., tumors harvested 48 h, one value per tumor, vehicle 1.606, 2.873, a reviewer reads roughly 100 nM
Method: as §2

MOC1 tumors = assay: Subcutaneous tumor therapy, ADC monotherapy, mouse survival; format: in vivo, C57BL/6 mice
Method: MOC1, B16, LL/2, and MC38 tumor cells were injected subcutaneously into the hindlimbs of 6-week-old female C57BL/6 albino mice in 100 µl of 1:1 Matrigel (BD) and PBS solution. Fractionated IR was delivered focally to the tumor-bearing hindlimbs (3 Gy to MC38 tumors and 5 Gy to LL/2 and B16 tumors) as indicated in figure legends using a PXI X-RAD 225 XL irradiator at maximal dose rate of 3 Gy/min with a beam-conditioning aluminum filter (Precision X-ray Irradiation). For RAG1 KO studies, 6-week-old female Rag1^tm1Mom mice were injected subcutaneously with tumor cells in their hindlimbs (Jackson Labs). For CD8 depletion studies, mice were i.p. injected with anti-CD8 (BioXCell #BE0117) at 10 mg/kg on days −6, −5 and −4 tumor cell implant and then weekly starting on day after tumor cells were injected or control antibody. […] Tumor volumes were measured and calculated using the formula as ½ * length * width^2. Mice were sacrificed when tumor volume reached >1500 mm^3, maximal tumor volume approved on our protocol for subcutaneous tumors.

B16 cells [6] = assay: Cell surface binding of Cy5-labeled ADCs by flow cytometry; format: cell-based, murine
Method: Murine cancer cells incubated on ice with Cy5 labeled ADC, bound Cy5 signal measured
by flow cytometry. Mean fluorescent intensity measured and subtracted from baseline fluorescence of saline incubated cells for each cell line. Data representative of 3

[7] = 10 nmoles ACPP-MMAE x 2 doses + IR 5 Gy/day x 3
[8] = 10 nmoles ACPP-MMAE x 2 doses, no IR
[9] = ACPP-MMAE alone, individual mice, status at the day, Figure 3e

CC[C@H](C)[C@@H]([C@@H](CC(=O)N1CCC[C@H]1[C@H](OC)[C@@H](C)C(=O)N[C@H](C)[C@@H](O)c1ccccc1)OC)N(C)C(=O)[C@@H](NC(=O)[C@@H](NC)C(C)C)C(C)C [MMAE, monomethyl auristatin E] (H-[NMeV]V[Dil][Dolaproine]-X1)
IC50 (A549): 0.559 nM and 0.513 nM | IC50 (HCT116): 0.343 nM and 0.431 nM and 0.548 nM and 1.43 nM and 1.52 nM and 1.35 nM | G2/M fraction (B16 cells [1]; MMAE 1 nM): 0.13 and 0.12 | G2/M fraction (B16 cells [1]; MMAE 2 nM): 0.12 and 0.14 | G2/M fraction (B16 cells [1]; MMAE 5 nM): 0.23 and 0.25 | G2/M fraction (B16 cells [1]; MMAE 10 nM): 0.73 and 0.76 | cell cycle effect (B16 cells [1]; MMAE-treated cells): arresting cells in the radiosensitive mitotic phase of the cell cycle

cyclo(RGD)fc-MC-HN-peg8-e9-oPLGC(Me)AG-r9-c-(MC-VC-PABC-MMAE)-CONH2 [ACPP-MMAE]
release of conjugated drug warhead in tumors [2]: efficiently released its conjugated drug warhead equally in LL/2 and B16 tumors | survival and tumor control, + IR (B16 tumors [3]; [7]): long-term survival and tumor control | anti-tumor efficacy, monotherapy (B16 tumors [3]; [8]): lacked significant anti-tumor efficacy | Mouse survival, status (B16 tumors [3]; [9]): 1 | survival and tumor control, + IR (LL/2 tumors; [7]): modestly prolonged mouse survival and tumor control | anti-tumor efficacy, monotherapy (LL/2 tumors; [8]): lacked significant anti-tumor efficacy | Mouse survival, status (LL/2 tumors; ACPP-MMAE + IR): 1 | Mouse survival, status (LL/2 tumors; ACPP-MMAE alone): 1 | survival and tumor control, + IR (MC38 tumors; 10 nmoles ACPP-MMAE x 2 doses + IR 3 Gy/day x 3): long-term survival and tumor control | anti-tumor efficacy, monotherapy (MC38 tumors; [8]): lacked significant anti-tumor efficacy | Mouse survival, status (MC38 tumors; [9]): 1 | CD8 T cell granzyme B (B16 tumors [4]): increased CD8 T cell granzyme B at both the transcriptional and protein levels | Immune checkpoint markers: GZMB, RNA (B16 tumors [4]): 3.95 and 3.63

CDX3379-MMAE: anti-HER3 antibody CDX3379 with 4 MMAE per antibody via MC-VC-PABC linker, labeled with Cy5
Tumor MMAE concentration [5]: 124.8 and 143.8 and 123.3 and 91.37 | anti-tumor activity as measured by mouse survival (MOC1 tumors): modest anti-tumor activity | cell surface binding to B16 cells (B16 cells [6]): dose response cell surface binding
